Source: patent US20220323401A1, “FORMULATIONS OF CANNABINOIDS FOR THE TREATMENT OF ACNE” (priority 2017, published 2022)

What was measured:
[1] = Discoloration of CBD solutions and formulations; format: physicochemical; details: by end of day 1
Text: The CBD2 material dissolved like the CBD1 therefore the CBD2 is CBD without the discoloration properties of CBD1.

[2] = in ethanol, reported value; cited from earlier work
[3] = target: T1, human vanilloid receptor type 1 (VR1) (Homo sapiens, UniProt Q8NER1); details: HEK-hVR1 transfected cells; cited from earlier work
T1 construct: host or cells: HEK cells transfected with hVR1 (HEK-hVR1)

[4] = tested on: rats; details: 5 mg/kg i.v. once daily for 4 weeks; cited from earlier work
[5] = tested on: anandamide; details: rat basophilic leukemia cells; cited from earlier work
[6] = Initial solubility studies of CBD in solvents; format: physicochemical
Description: First, the solubility of cannabidiol (CBD) was assessed. The powder looked granulated under the microscope. […] The conclusions from the solubility studies were that OA and IPA were very good solvents and it was surprising that IPA was so much better than ethanol.
Solubility studies: CBD dissolved at the 10% level in AE and barely 9.5% in IPM. Further exploration was not conducted due to the small amount of drug API available for non-GMP work. CBD is soluble greater than 10% but probably not in excess of 20%, as the time to dissolve additional CBD was taking considerably longer.

[7] = tested on: sensitized guinea-pigs; details: 1 mg/kg i.v.; cited from earlier work
[8] = tested on: immortalized human sebocytes; details: cited from earlier work

T1 sequence (Q8NER1 whole entry): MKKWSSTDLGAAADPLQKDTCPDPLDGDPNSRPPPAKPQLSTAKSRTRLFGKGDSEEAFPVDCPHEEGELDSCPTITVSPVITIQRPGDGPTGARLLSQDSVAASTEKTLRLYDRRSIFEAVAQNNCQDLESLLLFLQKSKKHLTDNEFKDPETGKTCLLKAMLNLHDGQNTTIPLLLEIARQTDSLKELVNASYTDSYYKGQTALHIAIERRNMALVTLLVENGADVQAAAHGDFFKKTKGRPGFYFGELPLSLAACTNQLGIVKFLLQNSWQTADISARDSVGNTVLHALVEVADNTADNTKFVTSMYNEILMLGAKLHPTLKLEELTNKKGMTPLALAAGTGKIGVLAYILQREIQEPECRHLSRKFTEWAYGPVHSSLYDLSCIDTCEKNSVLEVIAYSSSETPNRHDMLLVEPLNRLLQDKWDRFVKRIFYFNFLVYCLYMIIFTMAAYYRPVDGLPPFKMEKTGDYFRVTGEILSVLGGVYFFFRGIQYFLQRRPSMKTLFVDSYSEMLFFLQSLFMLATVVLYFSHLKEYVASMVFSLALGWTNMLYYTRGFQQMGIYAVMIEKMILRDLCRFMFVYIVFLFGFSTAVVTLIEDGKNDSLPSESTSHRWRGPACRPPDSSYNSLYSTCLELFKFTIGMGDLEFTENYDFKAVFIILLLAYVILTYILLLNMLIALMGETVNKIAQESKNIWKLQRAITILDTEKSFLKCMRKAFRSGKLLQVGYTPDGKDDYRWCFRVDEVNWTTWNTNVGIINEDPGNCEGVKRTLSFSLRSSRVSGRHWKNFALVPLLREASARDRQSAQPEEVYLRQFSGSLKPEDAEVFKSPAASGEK

Row | SMILES | discoloration of solution [1] | reported solubility of CBD [2] | stimulation of human VR1 [3] | cardiac inflammation produced by doxorubicin [4] | effect on anandamide [5] | solubility of CBD ([6]; in arlamol E (AE), probably not in excess of 20%) | solubility of CBD ([6]; in isopropyl myristate (IPM)) | solubility of CBD ([6]; weight to weight, in ethanol) | solubility of CBD ([6]; weight to weight, in hexamethyldisiloxane (HDS)) | solubility of CBD ([6]; weight to weight, in isopropyl alcohol (IPA)) | solubility of CBD ([6]; weight to weight, in mineral oil) | solubility of CBD ([6]; weight to weight, in oleyl alcohol (OA), did not go higher) | solubility of CBD ([6]; weight to weight, in propylene glycol (PG)) | ovalbumin-induced airway obstruction [7] | effects on sebocytes [8]
1 | C=C(C)[C@@H]1CCC(C)=C[C@H]1c1c(O)cc(CCCCC)cc1O [CBD1] | colored by the end of the day |  |  |  |  |  |  |  |  |  |  |  |  |  | 
2 | C=C(C)[C@@H]1CCC(C)=C[C@H]1c1c(O)cc(CCCCC)cc1O [CBD2] | None of the CBD2 solutions were colored at the end of day 1 |  |  |  |  |  |  |  |  |  |  |  |  |  | 
3 | C=C(C)C1CCC(C)=CC1c1c(O)cc(CCCCC)cc1O (stereo not shown) [CBD, 2-[3-methyl-6-(1-methylethenyl)-2-cyclohexen-1-yl]-5-pentyl-1,3-benzenediol] |  | 3.5% | maximum effect similar in efficacy to that of capsaicin | attenuated cardiac inflammation produced by doxorubicin | inhibit anandamide | greater than 10% | ~9.5% | 6-7% | 3-4% | greater than 14% | 3-4% | greater than 8% | 6-7% | attenuated ovalbumin-induced airway obstruction | lipostatic, anti-proliferative, and anti-inflammatory effects
